Where two headings read alike, the source gives them in different places.
Assays:
[1] = biological target: T1, human recombinant histamine H1 receptor (Homo sapiens, UniProt P35367); test: Histamine H1 radioligand binding ([3H]Pyrilamine); conditions: for inhibition at 3 µM: compound concentration 3 μM; for inhibition at 10 µM: compound concentration 10 μM
T1 construct: expressed in transfected cells; host or cells: CHO cells
Outline: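 Binding to the human recombinant histamine H1 receptor, expressed in CHO cells, was measured in a modified Tris-HCl buffer (50 mM Tris-HCl, pH 7.4, 2 mM MgCl2, 100 mM NaCl, 250 mM Sucrose). Compounds were incubated with 1.2 nM [3H]Pyrilamine for 180 minutes at 25° C, with 1 μM pyrilamine defining non-specific binding. After filtration and washing, filter counts gave percent inhibition of specific binding.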

[2] = biological target: T2, human recombinant serotonin (5-Hydroxytryptamine) 5-HT7 receptor (Homo sapiens, UniProt P34969); test: Serotonin 5-HT7 radioligand binding ([3H]LSD); conditions: for inhibition at 0.003 µM: compound concentration 3 nM; for inhibition at 0.01 µM: compound concentration 10 nM; for inhibition at 0.03 µM: compound concentration 0.03 μM; for inhibition at 0.1 µM: compound concentration 0.1 μM; for inhibition at 0.3 µM: compound concentration 0.3 μM
T2 construct: expressed in transfected cells; host or cells: CHO cells
Outline: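 CHO-expressed human 5-HT7 receptor with 5.5 nM [3H]LSD in 50 mM Tris-HCl pH 7.4, 10 mM MgCl2, 0.5 mM EDTA, 2 h at 25 °C; nonspecific binding defined with serotonin. Filtration and counting. Compounds at ≤1 μM, 1% DMSO; % inhibition of specific binding.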

[3] = biological target: T3, human recombinant adrenergic α2B receptor (Homo sapiens, UniProt P18089); test: Adrenergic α2B radioligand binding ([3H]Rauwolscine)
T3 construct: expressed in transfected cells; host or cells: CHO-K1 cells
T3 sequence (P18089 1-450): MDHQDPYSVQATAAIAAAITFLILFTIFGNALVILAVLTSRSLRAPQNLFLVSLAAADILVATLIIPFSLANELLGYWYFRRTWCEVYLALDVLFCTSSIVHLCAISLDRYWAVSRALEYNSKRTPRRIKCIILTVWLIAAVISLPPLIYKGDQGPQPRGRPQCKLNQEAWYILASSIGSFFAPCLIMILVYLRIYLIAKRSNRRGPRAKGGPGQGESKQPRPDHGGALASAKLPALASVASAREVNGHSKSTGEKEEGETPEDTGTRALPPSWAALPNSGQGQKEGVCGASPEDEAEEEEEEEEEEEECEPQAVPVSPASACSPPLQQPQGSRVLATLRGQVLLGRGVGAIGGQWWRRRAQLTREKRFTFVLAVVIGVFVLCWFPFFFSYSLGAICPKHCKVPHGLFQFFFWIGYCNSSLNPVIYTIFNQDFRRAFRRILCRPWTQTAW
Description: To evaluate in radioligand binding assays the activity of compounds of the invention, human recombinant adrenergic α2B receptor expressed in Chinese hamster ovary (CHO-K1) cells (Uhlen S et al. Eur J. Pharmacol. 343(1):93, 1998) in a modified Tris-HCl buffer (50 mM Tris-HCl, pH 7.4, 12.5 mM MgCl2, 1 mM EDTA, 0.2% BSA) was used. Compounds of the invention were incubated with 2.5 nM [^3H]Rauwolscine for 60 minutes at 25° C. Non-specific binding was estimated in the presence of 10 μM Prozosin. Receptor proteins were filtered and washed, the filters were then counted to determine [^3H]Rauwolscine specifically bound. Compounds were screened at 1 μM or lower, using 1% DMSO as vehicle. Biochemical assay results are presented as the percent inhibition of specific binding in Table 4.

[4] = system: rat central imidazoline I2 receptor; test: Central imidazoline I2 radioligand binding ([3H]Idazoxan); conditions: inhibition of specific [3H]Idazoxan binding
Description: To evaluate in radioligand binding assays the activity of compounds of the invention, rat central imidazoline I2 receptor obtained from Wistar Rat cerebral cortex (Brown, C. M. et al., Br. J. Pharmacol. 99:803, 1990) in a modified Tris-HCl buffer (50 mM Tris-HCl buffer, pH 7.4, 0.5 mM EDTA) was used. Compounds of the invention were incubated with 2 nM [^3H]Idazoxan for 30 minutes at 25° C. Non-specific binding was estimated in the presence of 1 μM Idazoxan. Receptor proteins were filtered and washed, the filters were then counted to determine [^3H]Idazoxan specifically bound. Compounds were screened at 1 μM or lower, using 1% DMSO as vehicle. Compounds of the invention were tested in this biochemical assay and percent inhibition of specific binding was determined.

[5] = 1 μM, read-out: Binding data (Percentage Inhibition) Histamine Binding (1 μM) H1
[6] = 2 h, read-out: Percent Inhibition of ligand binding Serotonin (1 μM ligand concentration) 5-HT7
[7] = 1 h, read-out: Percent Inhibition of ligand binding Adrenergic (1 μM ligand conc.) α2B
[8] = compound concentration 1 μM, read-out: Percentage inhibition of ligand binding to H1 receptor
[9] = read-out: Percentage inhibition of ligand binding to H1 receptor
[10] = read-out: Percentage inhibition of ligand binding to 5-HT7 receptor
[11] = compound concentration 1 μM, read-out: Percentage inhibition of ligand binding to Adrenergic α2B receptor

T1 sequence (P35367 whole entry): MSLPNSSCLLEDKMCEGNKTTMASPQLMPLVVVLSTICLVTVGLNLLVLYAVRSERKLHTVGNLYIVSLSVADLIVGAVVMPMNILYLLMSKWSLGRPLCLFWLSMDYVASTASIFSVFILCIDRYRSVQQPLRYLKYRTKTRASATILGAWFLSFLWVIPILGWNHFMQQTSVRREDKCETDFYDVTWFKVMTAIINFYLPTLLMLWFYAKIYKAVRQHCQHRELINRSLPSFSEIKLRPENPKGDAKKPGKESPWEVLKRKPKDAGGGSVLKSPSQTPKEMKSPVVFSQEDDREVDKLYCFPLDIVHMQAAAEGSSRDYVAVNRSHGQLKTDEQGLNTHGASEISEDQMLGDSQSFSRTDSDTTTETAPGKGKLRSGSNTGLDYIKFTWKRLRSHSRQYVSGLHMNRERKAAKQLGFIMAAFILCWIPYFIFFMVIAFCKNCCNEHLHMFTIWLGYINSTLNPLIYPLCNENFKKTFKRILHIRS
T2 sequence (P34969 whole entry): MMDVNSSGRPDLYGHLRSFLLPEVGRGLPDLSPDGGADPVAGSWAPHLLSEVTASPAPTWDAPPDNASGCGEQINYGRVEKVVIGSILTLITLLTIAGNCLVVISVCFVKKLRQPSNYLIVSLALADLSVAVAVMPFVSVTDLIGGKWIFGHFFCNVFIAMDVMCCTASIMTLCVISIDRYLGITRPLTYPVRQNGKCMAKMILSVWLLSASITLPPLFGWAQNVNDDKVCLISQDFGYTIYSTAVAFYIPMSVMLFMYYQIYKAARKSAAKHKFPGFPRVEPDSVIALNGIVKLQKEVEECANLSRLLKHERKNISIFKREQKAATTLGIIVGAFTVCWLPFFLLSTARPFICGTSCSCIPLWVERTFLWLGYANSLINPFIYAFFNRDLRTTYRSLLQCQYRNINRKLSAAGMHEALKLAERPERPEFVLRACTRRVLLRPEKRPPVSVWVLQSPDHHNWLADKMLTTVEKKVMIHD

| Compound | inhibition at 1 µM [1, 5] | inhibition at 1 µM [2, 6] | inhibition at 1 µM [3, 7] | also measured |
| --- | --- | --- | --- | --- |
| CCC1c2c(c3cc(Cl)ccc3n2CC(C)(O)c2ccc(F)cc2)CCN1C (stereo not drawn) [Compound 79] | 50% | 85% | 89% |  |
| CC1c2c(c3cc(Cl)ccc3n2C#Cc2ccc(Cl)cc2)CCN1C (stereo not drawn) [Compound 132, 6-chloro-9-((4-chlorophenyl)ethynyl)-1,2-dimethyl-2,3,4,9-tetrahydro-1H-pyrido[3,4-b]indole] | 14% | 35% | 84% |  |
| CC1c2c(c3cc(Cl)ccc3n2C#Cc2ccc(F)cc2)CCN1C (stereo not drawn) [Compound 128] | 32% | 24% | 94% |  |
| CCC1c2c(c3cc(C)ccc3n2C(=O)Cc2ccc(F)cc2)CCN1C (stereo not drawn) [Compound 159] | 5% | 49% | 78% |  |
| Cc1ccc2c(c1)c1c(n2C(=O)Cc2ccc(Cl)cc2)C(c2ccccc2)N(C)CC1 (stereo not drawn) [Compound 163] | 13% | 29% | 37% |  |
| C/C(=C\n1c2c(c3cc(C)ccc31)CCN(C)C2c1ccccc1)c1ccc(Cl)cc1 (stereo not drawn) [Compound 164, 9-(2-(4-chlorophenyl)prop-1-enyl)-2,6-dimethyl-1-phenyl-2,3,4,9-tetrahydro-1H-pyrido[3,4-b]indole] | 12% | 8% | 15% |  |
| C/C(=C\n1c2c(c3cc(Cl)ccc31)CCN(C)C2)c1ccc(Cl)cc1 [Compound 98, 6-chloro-9-(2-(4-chlorophenyl)prop-1-enyl)-2-methyl-2,3,4,9-tetrahydro-1H-pyrido[3,4-b]indole] | 40% | 94% | 87% |  |
| C/C(=C/n1c2c(c3cc(C)ccc31)CCN(C)C2C)c1ccccc1F (stereo not drawn) [Compound 165] | 21% | 91% | 91% |  |
| C/C(=C\n1c2c(c3cc(Cl)ccc31)CCN(C)C2)c1ccc(F)cc1 [Compound 90, (E)-6-chloro-9-(2-(4-fluorophenyl)prop-1-enyl)-2-methyl-2,3,4,9-tetrahydro-1H-pyrido[3,4-b]indole] | 29% |  | 97% | inhibition at 1 µM [1, 8]: 48%; inhibition at 3 µM [1, 9]: 76%; inhibition at 10 µM [1, 9]: 94%; inhibition at 0.003 µM [2, 10]: -2%; inhibition at 0.01 µM [2, 10]: 15%; inhibition at 0.03 µM [2, 10]: 29%; inhibition at 0.1 µM [2, 10]: 63%; inhibition at 0.3 µM [2, 10]: 86%; inhibition at 1 µM [3, 11]: 97% |
| CCC1c2c(c3cc(Cl)ccc3n2C#Cc2ccc(F)cc2)CCN1C (stereo not drawn) [Compound 129] | 8% | 15% | 81% |  |
| Cc1ccc2c(c1)c1c(n2CCC2CCCCC2)CN(C)CC1 [Compound 2, 9-(2-cyclohexylethyl)-2,3,4,9-tetrahydro-2,6-dimethyl-1H-pyrido[3,4-b]indole] | 95% |  | 81% | Binding data (Percentage Inhibition) Imidazoline I2 Central (1 μM) [4]: 18% |
| CCC1c2c(c3cc(Cl)ccc3n2CCc2ccc(F)cc2)CCN1C (stereo not drawn) [Compound 78] | 71% | 99% | 102% |  |
| C/C(=C\n1c2c(c3cc(Cl)ccc31)CCN(C)C2C)c1ccc(Cl)cc1 (stereo not drawn) [Compound 99, 6-chloro-9-(2-(4-chlorophenyl)prop-1-enyl)-1,2-dimethyl-2,3,4,9-tetrahydro-1H-pyrido[3,4-b]indole] | 65% | 68% | 77% |  |
| C/C(=C\n1c2c(c3cc(C)ccc31)CCN(C)C2)c1ccc(F)cc1 [Compound 91, (E)-9-(2-(4-fluorophenyl)prop-1-enyl)-2,6-dimethyl-2,3,4,9-tetrahydro-1H-pyrido[3,4-b]indole] | 28% |  | 94% | inhibition at 1 µM [1, 8]: 42%; inhibition at 3 µM [1, 9]: 75%; inhibition at 10 µM [1, 9]: 95%; inhibition at 0.003 µM [2, 10]: 19%; inhibition at 0.01 µM [2, 10]: 36%; inhibition at 0.03 µM [2, 10]: 53%; inhibition at 0.1 µM [2, 10]: 83%; inhibition at 0.3 µM [2, 10]: 87%; inhibition at 1 µM [3, 11]: 94% |
| C/C(=C\n1c2c(c3cc(C)ccc31)CCN(C)C2C)c1ccccc1F (stereo not drawn) [Compound 166] | 79% | 92% | 106% | inhibition at 0.3 µM ([1]; compound concentration 0.3 μM, read-out: Percentage inhibition of ligand binding to H1 receptor): 23%; inhibition at 1 µM [1, 8]: 79%; inhibition at 3 µM [1, 9]: 77%; inhibition at 1 µM ([2]; compound concentration 1 μM, read-out: Percentage inhibition of ligand binding to 5-HT7 receptor): 92%; inhibition at 1 µM [3, 11]: 106% |
| CCC1c2c(c3cc(C)ccc3n2/C=C(\C)c2ccc(Cl)cc2)CCN1C (stereo not drawn) [Compound 160, 9-(2-(4-chlorophenyl)prop-1-enyl)-1-ethyl-2,6-dimethyl-2,3,4,9-tetrahydro-1H-pyrido[3,4-b]indole] | 31% | 84% | 75% |  |
| Cc1ccc(CCn2c3c(c4cc(Cl)ccc42)CCN(C)C3C)cn1 (stereo not drawn) [Compound 80] | 66% | 82% | 100% |  |
| CC1c2c(c3cc(Cl)ccc3n2CCc2ccc(F)cc2)CCN1C (stereo not drawn) [Compound 81] | 80% | 82% | 102% |  |
| CCC1c2c(c3cc(C)ccc3n2C#Cc2ccc(Cl)cc2)CCN1C (stereo not drawn) [Compound 162, 9-((4-chlorophenyl)ethynyl)-1-ethyl-2,6-dimethyl-2,3,4,9-tetrahydro-1H-pyrido[3,4-b]indole] | 15% | 27% | 85% |  |
| C/C(=C\n1c2c(c3cc(C)ccc31)CCN(C)C2C)c1ccc(Cl)cc1 (stereo not drawn) [Compound 161, 9-(2-(4-chlorophenyl)prop-1-enyl)-1,2,6-trimethyl-2,3,4,9-tetrahydro-1H-pyrido[3,4-b]indole] | 51% | 93% | 92% |  |
| CCC1c2c(c3cc(Cl)ccc3n2/C=C(\C)c2ccc(Cl)cc2)CCN1C (stereo not drawn) [Compound 100, 6-chloro-9-(2-(4-chlorophenyl)prop-1-enyl)-1-ethyl-2-methyl-2,3,4,9-tetrahydro-1H-pyrido[3,4-b]indole] | 33% | 42% | 53% |  |
| C/C(=C/n1c2c(c3cc(Cl)ccc31)CCN(C)C2C)c1ccccc1F (stereo not drawn) [Compound 167] | 64% | 97% | 94% |  |
| C/C(=C\n1c2c(c3cc(Cl)ccc31)CCN(C)C2C)c1ccccc1F (stereo not drawn) [Compound 168] | 85% | 84% | 82% |  |
| C/C(=C\n1c2c(c3cc(C)ccc31)CCN(C)C2)c1ccc(Cl)cc1 [Compound 97, 9-(2-(4-chlorophenyl)prop-1-enyl)-2,6-dimethyl-2,3,4,9-tetrahydro-1H-pyrido[3,4-b]indole] | 20% | 98% | 96% |  |
